# Measured values reported in ChEMBL document CHEMBL1782056, “A novel series of piperazinyl-pyridine ureas as antagonists of the purinergic P2Y12 receptor” (Bioorg Med Chem Lett, 2011).
# Experiment: physchem
# Conditions: HBSS buffer, pH 6.5
row,SMILES,solubility
1,CCOC(=O)C1=C(C)NC(C)=C(C(=O)OC)C1c1cccc(Cl)c1Cl (stereo not given) [FELODIPINE],1 µM
2,C[C@]12CC[C@H]3[C@@H](CCC4=CC(=O)CC[C@@]43C)[C@@H]1CC[C@@H]2O [TESTOSTERONE],75 µM
3,CCOC(=O)c1cnc(N2CCN(C(=O)Nc3ccccc3)CC2)c(C#N)c1,90 µM
4,CCOC(=O)c1cc(C#N)c(N2CCN(C(=O)Nc3ccccc3)CC2)nc1C(F)(F)F,< 0.1 µM
5,CCOC(=O)c1cnc(N2CCN(C(=O)Nc3ccccc3)CC2)c(Cl)c1,40 µM
